This test addresses T1, STK17B (DRAK2) (Homo sapiens, UniProt O94768).
T1 construct: purchased Thermo Fisher Scientific (Life Technologies) SelectScreen
Description: SelectScreen LanthaScreen. The format is binding. Particulars: read-out: % displacement. An outline of the steps: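 NU5455 was profiled across the SelectScreen Broad panel of kinase activity and binding assays. Z'LYTE reactions such as CSF1R ran at apparent Km ATP, while the Adapta CAMK1 assay used ATP listed as 10. Values are given as percent.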

T1 sequence (O94768 whole entry): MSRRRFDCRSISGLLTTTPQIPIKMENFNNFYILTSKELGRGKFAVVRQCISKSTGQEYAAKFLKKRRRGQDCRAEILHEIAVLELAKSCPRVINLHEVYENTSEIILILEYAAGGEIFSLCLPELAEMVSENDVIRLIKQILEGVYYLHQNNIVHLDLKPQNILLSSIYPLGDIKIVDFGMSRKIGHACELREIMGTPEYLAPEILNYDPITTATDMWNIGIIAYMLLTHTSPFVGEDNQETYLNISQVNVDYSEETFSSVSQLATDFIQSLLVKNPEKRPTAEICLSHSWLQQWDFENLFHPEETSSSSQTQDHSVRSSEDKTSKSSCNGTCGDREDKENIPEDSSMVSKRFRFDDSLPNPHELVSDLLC

In the case of `CN(C(=O)CN1CCOCC1)c1ccc2sc3c(-c4cccc5c(=O)cc(N6CC7CCC(C6)O7)oc45)cccc3c2c1` [NU5455], the inhibition at 1 µM stood at 2.7%.
